Data taken from patent US8911805B2, “Calcium preparation and method of production thereof” (Toyo Suisan Kaisha, Ltd., priority 2010, dated 2014).

Tested on: bone loss in low-Ca fed rats
Assay: Oral study of solid preparation of calcium in rats (dry weight of tibia)
Format: in vivo, Crl:CD (SD) rats
Details: compared to the low calcium fed group; feed Ca content 0.5%, three weeks
Experimental: A test for the improvement, effect of the solid preparation or calcium of the present invention on bone loss in low-Ca fed rats was performed using 5-week-old male Crl:CD (SD) rats. AIN-93M was administered to 4-week old rats. After habituation for one week, various kinds of feeds were administered to the rats for three weeks. As a basic feed, a feed obtained by modifying the content of calcium in AIN-93M to 0.2% (normal feed: 0.5%) was used.
The test groups included the following six groups (one group: eight rats): a low calcium fed group to which a basic feed was administered; a group to which a basic feed containing calcium carbonate at a Ca content of 0.5% was administered; a group to which a basic feed containing freeze-dried powder of a C100P100Ca200K225 solution after aging (at 37° C. for two days) at a Ca content of 0.5% was administered; a group to which a basic feed containing freeze-dried powder of a C200P100Ca200K550 solution after aging (at 37° C. for one day) a Ca content of 0.5% was administered; a group to which a basic feed containing freeze-dried powder of a C100P100Ca200K225 solution before aging at a Ca content of 0.5% was administered; and a group to which basic feed containing calcium lactate at a Ca content of 0.5% was administered.
After three weeks, the dry weight of the extracted tibia was measured. […]

SMILES | bone weight (dry weight of the extracted tibia)
O=C([O-])[O-].[Ca+2] [calcium carbonate] | significantly increased
CC(O)C(=O)[O-].CC(O)C(=O)[O-].[Ca+2] (centres unmarked) [calcium lactate] | significantly increased
